Laboratory results from patent US9550754B2, “4,5-dihydropyrazole derivatives, pharmaceutical compositions containing them, and their use in therapy” (ABBVIE DEUTSCHLAND GMBH & CO. KG, priority 2014, dated 2017).

Biological target: T1, human GlyT1c transporter (Homo sapiens, UniProt P48067)
T1 construct: expressed in transfected cells; host or cells: recombinant CHO cells (membranes); the line hGlyT1c_5_CHO is named only for the uptake assay
T1 sequence (P48067 1-706): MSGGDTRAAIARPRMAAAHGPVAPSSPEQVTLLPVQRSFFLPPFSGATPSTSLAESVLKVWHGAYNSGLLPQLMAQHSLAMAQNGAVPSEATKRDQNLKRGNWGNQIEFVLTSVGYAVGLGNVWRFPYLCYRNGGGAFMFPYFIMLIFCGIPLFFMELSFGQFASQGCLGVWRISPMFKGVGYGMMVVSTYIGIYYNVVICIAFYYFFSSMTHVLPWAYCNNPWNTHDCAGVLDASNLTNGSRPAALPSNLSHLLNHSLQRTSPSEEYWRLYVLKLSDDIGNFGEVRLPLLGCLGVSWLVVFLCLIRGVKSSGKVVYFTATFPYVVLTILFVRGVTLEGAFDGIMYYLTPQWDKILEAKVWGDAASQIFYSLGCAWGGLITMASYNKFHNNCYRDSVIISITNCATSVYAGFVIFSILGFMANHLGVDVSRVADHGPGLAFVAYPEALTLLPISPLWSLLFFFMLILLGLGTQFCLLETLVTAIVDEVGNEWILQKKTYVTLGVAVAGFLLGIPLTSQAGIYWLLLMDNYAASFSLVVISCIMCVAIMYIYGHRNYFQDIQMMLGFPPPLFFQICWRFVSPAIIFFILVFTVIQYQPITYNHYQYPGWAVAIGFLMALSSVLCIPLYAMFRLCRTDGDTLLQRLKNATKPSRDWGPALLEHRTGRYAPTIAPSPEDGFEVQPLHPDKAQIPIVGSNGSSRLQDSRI
Experiment: Radioligand binding assay using recombinant CHO cell membranes expressing human GlyT1
Conditions: apparent Ki, read-out: Kiapp (Inhibition of GlyT1 radioligand binding)
Experimental: 2. Radioligand Binding Assays Using Recombinant CHO Cell Membranes Expressing Human GlyT1:
Radioligand binding to human GlyT1c transporter-expressing membranes was carried out as described in Mezler et al., Molecular Pharmacology 74:1705-1715, 2008.

| SMILES | Ki |
| --- | --- |
| Cn1cnc(S(=O)(=O)N2CC(c3ccccc3)C(c3ccc(Cl)cc3)=N2)c1 (single isomer, unassigned) [Example 16b, 3-(4-chlorophenyl)-1-[(1-methyl-1H-imidazol-4-yl)sulfonyl]-4-phenyl-4,5-dihydro-1H-pyrazole] | ≤ 10 µM |
| Cn1cc(S(=O)(=O)N2CC(c3ccc(F)cc3)C(c3cccc(C(F)(F)F)c3)=N2)nn1 (stereo not shown) [Example 1, 4-({4-(4-fluorophenyl)-3-[3-(trifluoromethyl)phenyl]-4,5-dihydro-1H-pyrazol-1-yl}sulfonyl)-1-methyl-1H-1,2,3-triazole] | ≤ 10 µM |
| Cn1cc(S(=O)(=O)N2CC(c3ccc(F)cc3)C(c3ccccc3)=N2)cn1 (stereo not shown) [Example 9, 4-{[4-(4-fluorophenyl)-3-phenyl-4,5-dihydro-1H-pyrazol-1-yl]sulfonyl}-1-methyl-1H-pyrazole] | ≥ 10 µM |
| Cn1cc(S(=O)(=O)N2CC(c3ccc(F)cc3)C(c3cccc(C(F)(F)F)c3)=N2)cn1 (stereo not shown) [Example 10, 4-({4-(4-fluorophenyl)-3-[3-(trifluoromethyl)phenyl]-4,5-dihydro-1H-pyrazol-1-yl}sulfonyl)-1-methyl-1H-pyrazole] | ≤ 10 µM |
| Cn1cc(S(=O)(=O)N2CC(c3ccccc3)C(c3ccc(Cl)cc3)=N2)cn1 (stereo not shown) [Example 11, 4-{[3-(4-chlorophenyl)-4-phenyl-4,5-dihydro-1H-pyrazol-1-yl]sulfonyl}-1-methyl-1H-pyrazole] | ≤ 10 µM |
| Cn1cc(S(=O)(=O)N2CC(c3ccccc3)C(c3cccc(OC(F)(F)F)c3)=N2)cn1 (stereo not shown) [Example 14, 1-methyl-4-({4-phenyl-3-[3-(trifluoromethoxy)phenyl]-4,5-dihydro-1H-pyrazol-1-yl}sulfonyl)-1H-pyrazole] | ≤ 10 µM |
| CC(C)CC1=NN(S(=O)(=O)c2cn(C)cn2)CC1c1ccccc1 (stereo not shown) [Example 17, 1-[(1-methyl-1H-imidazol-4-yl)sulfonyl]-3-(2-methylpropyl)-4-phenyl-4,5-dihydro-1H-pyrazole] | ≤ 10 µM |
| Cn1cnc(S(=O)(=O)N2CC(c3ccccc3)C(c3ccccn3)=N2)c1 (stereo not shown) [Example 18, 2-{1-[(1-methyl-1H-imidazol-4-yl)sulfonyl]-4-phenyl-4,5-dihydro-1H-pyrazol-3-yl}pyridine] | ≤ 10 µM |
| Cn1cc(S(=O)(=O)N2CC(c3ccccc3)C(c3ccccn3)=N2)cn1 (stereo not shown) [Example 19, 2-{1-[(1-methyl-1H-pyrazol-4-yl)sulfonyl]-4-phenyl-4,5-dihydro-1H-pyrazol-3-yl}pyridine] | ≥ 10 µM |
| Cn1cc(S(=O)(=O)N2CC(c3ccccc3)C(c3ccccn3)=N2)nn1 (stereo not shown) [Example 20, 2-{1-[(1-methyl-1H-1,2,3-triazol-4-yl)sulfonyl]-4-phenyl-4,5-dihydro-1H-pyrazol-3-yl}pyridine] | ≤ 10 µM |
| Cn1cnc(S(=O)(=O)N2CC(c3ccccc3)C(c3cc(C(F)(F)F)ccn3)=N2)c1 (stereo not shown) [Example 21, 2-{1-[(1-methyl-1H-imidazol-4-yl)sulfonyl]-4-phenyl-4,5-dihydro-1H-pyrazol-3-yl}-4-(trifluoromethyl)pyridine] | ≤ 10 µM |
| Cn1cc(S(=O)(=O)N2CC(c3ccccc3)C(c3cc(C(F)(F)F)ccn3)=N2)cn1 (stereo not shown) [Example 22, 2-{1-[(1-methyl-1H-pyrazol-4-yl)sulfonyl]-4-phenyl-4,5-dihydro-1H-pyrazol-3-yl}-4-(trifluoromethyl)pyridine] | ≤ 10 µM |
| Cn1cc(S(=O)(=O)N2CC(c3ccccc3)C(c3cc(C(F)(F)F)ccn3)=N2)nn1 (stereo not shown) [Example 23, 2-{1-[(1-methyl-1H-1,2,3-triazol-4-yl)sulfonyl]-4-phenyl-4,5-dihydro-1H-pyrazol-3-yl}-4-(trifluoromethyl)pyridine] | ≤ 10 µM |
| Cn1cnc(S(=O)(=O)N2CC(c3ccc(Cl)cc3)C(c3ccccc3)=N2)c1 (stereo not shown) [Example 24, 4-(4-chlorophenyl)-1-[(1-methyl-1H-imidazol-4-yl)sulfonyl]-3-phenyl-4,5-dihydro-1H-pyrazole] | ≤ 1 µM |
| Cn1cnc(S(=O)(=O)N2CC(c3cccc(C#N)c3)C(c3ccccc3)=N2)c1 (stereo not shown) [Example 25, 3-{1-[(1-methyl-1H-imidazol-4-yl)sulfonyl]-3-phenyl-4,5-dihydro-1H-pyrazol-4-yl}benzonitrile] | ≤ 10 µM |
| Cn1cc(S(=O)(=O)N2CC(c3ccc(Cl)cc3)C(c3ccccc3)=N2)cn1 (stereo not shown) [Example 26, 4-{[4-(4-chlorophenyl)-3-phenyl-4,5-dihydro-1H-pyrazol-1-yl]sulfonyl}-1-methyl-1H-pyrazole] | ≤ 10 µM |
| Cn1cc(S(=O)(=O)N2CC(c3ccc(Cl)cc3)C(c3ccccc3)=N2)nn1 (stereo not shown) [Example 27, 4-{[4-(4-chlorophenyl)-3-phenyl-4,5-dihydro-1H-pyrazol-1-yl]sulfonyl}-1-methyl-1H-1,2,3-triazole] | ≤ 1 µM |
| Cn1cc(S(=O)(=O)N2CC(c3cccc(C#N)c3)C(c3ccccc3)=N2)nn1 (stereo not shown) [Example 28, 3-{1-[(1-methyl-1H-1,2,3-triazol-4-yl)sulfonyl]-3-phenyl-4,5-dihydro-1H-pyrazol-4-yl}benzonitrile] | ≤ 1 µM |
| Cn1cc(S(=O)(=O)N2CC(c3cccc(Cl)c3)C(c3ccccc3)=N2)cn1 (stereo not shown) [Example 29, 4-{[4-(3-chlorophenyl)-3-phenyl-4,5-dihydro-1H-pyrazol-1-yl]sulfonyl}-1-methyl-1H-pyrazole] | ≤ 10 µM |

The remaining lines, values ahead:

| Ki | SMILES |
| --- | --- |
| ≤ 0.01 µM | Cn1cnc(S(=O)(=O)N2CC(c3ccccc3)C(c3ccc(Cl)cc3)=N2)c1 (single isomer, unassigned) [Example 16a, 3-(4-chlorophenyl)-1-[(1-methyl-1H-imidazol-4-yl)sulfonyl]-4-phenyl-4,5-dihydro-1H-pyrazole] |
| ≤ 0.1 µM | Cn1cnc(S(=O)(=O)N2CC(c3ccccc3)C(c3ccc(Cl)cc3)=N2)c1 (stereo not shown) [Example 2, 3-(4-chlorophenyl)-1-[(1-methyl-1H-imidazol-4-yl)sulfonyl]-4-phenyl-4,5-dihydro-1H-pyrazole] |
| ≤ 0.1 µM | Cn1cc(S(=O)(=O)N2CC(c3ccc(F)cc3)C(c3ccccc3)=N2)nn1 (stereo not shown) [Example 3, 4-{[4-(4-fluorophenyl)-3-phenyl-4,5-dihydro-1H-pyrazol-1-yl]sulfonyl}-1-methyl-1H-1,2,3-triazole] |
| ≤ 1 µM | Cn1cnc(S(=O)(=O)N2CC(c3ccc(F)cc3)C(c3ccccc3)=N2)c1 (stereo not shown) [Example 4, 4-(4-fluorophenyl)-1-[(1-methyl-1H-imidazol-4-yl)sulfonyl]-3-phenyl-4,5-dihydro-1H-pyrazole] |
| ≤ 1 µM | Cn1cnc(S(=O)(=O)N2CC(c3ccc(F)cc3)C(c3cccc(Cl)c3)=N2)c1 (stereo not shown) [Example 5, 3-(3-chlorophenyl)-4-(4-fluorophenyl)-1-[(1-methyl-1H-imidazol-4-yl)sulfonyl]-4,5-dihydro-1H-pyrazole] |
| ≤ 0.1 µM | Cn1cc(S(=O)(=O)N2CC(c3ccc(F)cc3)C(c3cccc(Cl)c3)=N2)nn1 (stereo not shown) [Example 6, 4-{[3-(3-chlorophenyl)-4-(4-fluorophenyl)-4,5-dihydro-1H-pyrazol-1-yl]sulfonyl}-1-methyl-1H-1,2,3-triazole] |
| ≤ 0.01 µM | Cn1cc(S(=O)(=O)N2CC(c3ccc(F)cc3)C(c3cccc(Cl)c3)=N2)cn1 (stereo not shown) [Example 7, 4-{[3-(3-chlorophenyl)-4-(4-fluorophenyl)-4,5-dihydro-1H-pyrazol-1-yl]sulfonyl}-1-methyl-1H-pyrazole] |
| ≤ 0.1 µM | Cn1cnc(S(=O)(=O)N2CC(c3ccc(F)cc3)C(c3cccc(C(F)(F)F)c3)=N2)c1 (stereo not shown) [Example 8, 4-(4-fluorophenyl)-1-[(1-methyl-1H-imidazol-4-yl)sulfonyl]-3-[3-(trifluoromethyl)phenyl]-4,5-dihydro-1H-pyrazole] |
| ≤ 0.01 µM | Cn1cc(S(=O)(=O)N2CC(c3ccccc3)C(c3ccc(Cl)cc3)=N2)nn1 (stereo not shown) [Example 12, 4-{[3-(4-chlorophenyl)-4-phenyl-4,5-dihydro-1H-pyrazol-1-yl]sulfonyl}-1-methyl-1H-1,2,3-triazole] |
| ≤ 0.1 µM | Cn1cnc(S(=O)(=O)N2CC(c3ccccc3)C(c3cccc(OC(F)(F)F)c3)=N2)c1 (stereo not shown) [Example 13, 1-[(1-methyl-1H-imidazol-4-yl)sulfonyl]-4-phenyl-3-[3-(trifluoromethoxy)-phenyl]-4,5-dihydro-1H-pyrazole] |
| ≤ 0.1 µM | Cn1cc(S(=O)(=O)N2CC(c3ccccc3)C(c3cccc(OC(F)(F)F)c3)=N2)nn1 (stereo not shown) [Example 15, 1-methyl-4-({4-phenyl-3-[3-(trifluoromethoxy)phenyl]-4,5-dihydro-1H-pyrazol-1-yl}sulfonyl)-1H-1,2,3-triazole] |
| ≤ 0.1 µM | Cn1cnc(S(=O)(=O)N2CC(c3cccc(Cl)c3)C(c3ccccc3)=N2)c1 (stereo not shown) [Example 30, 4-(3-chlorophenyl)-1-[(1-methyl-1H-imidazol-4-yl)sulfonyl]-3-phenyl-4,5-dihydro-1H-pyrazole] |
